# Results reported in ChEMBL document CHEMBL1201862, “PubChem BioAssay data set” (2004).
#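 Protocol summary: plate cells (96-well), add compound at 5 concentrations, incubate 48 h, interpolate endpoints linearly. GI50 = concentration required for 50% inhibition of growth.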 Activity calls are given as the source filed them. Cut-off read from the data, not from the text of the source: active = GI50 up to about 1.1 µM and inactive = higher.
# Tests used:
# Assay in all cases: NCI tumour cell line growth inhibition, 48 h
# [1] = system: UO-31
# [2] = system: K562
# [3] = system: COLO 205
# [4] = system: MOLT-4
# [5] = system: HCT-116
# [6] = system: LOX IMVI
# [7] = system: SF-268
# [8] = system: 786-0
# [9] = system: SR
# [10] = system: NCI/ADR-RES
# [11] = system: CCRF-CEM
# [12] = system: CAKI-1
# [13] = system: A498
# [14] = system: NCI-H226
# [15] = system: HT-29
# [16] = system: IGROV-1
# [17] = system: SK-MEL-28
# [18] = system: SK-OV-3
# [19] = system: BT-549
Compound,GI50 [1],GI50 [2],GI50 [3],GI50 [4],GI50 [5],GI50 [6],GI50 [7],GI50 [8],GI50 [9],GI50 [10],GI50 [11],GI50 [12],GI50 [13],GI50 [14],GI50 [15],GI50 [16],GI50 [17],GI50 [18],GI50 [19]
Cc1cc(CC(O)(C(F)(F)F)C(F)(F)F)cc(CC(O)(C(F)(F)F)C(F)(F)F)n1,2.05 µM (inactive),4.28 µM (inactive),1.87 µM (inactive),3.24 µM (inactive),2.34 µM (inactive),2.42 µM (inactive),2.7 µM (inactive),2.29 µM (inactive),4.08 µM (inactive),1.87 µM (inactive),3.21 µM (inactive),> 100 µM (inactive),2.76 µM (inactive),2.72 µM (inactive),2.58 µM (inactive),3.46 µM (inactive),3.03 µM (inactive),,
COC(=O)c1cc(C)ccc1C1CN=NC12Cc1cccc(C)c1C2=O (stereo not drawn),38.9 µM (inactive),33.3 µM (inactive),,18.7 µM (inactive),23.8 µM (inactive),16.6 µM (inactive),49.7 µM (inactive),56.6 µM (inactive),26.2 µM (inactive),25.5 µM (inactive),29.3 µM (inactive),43.3 µM (inactive),47.6 µM (inactive),33.1 µM (inactive),36 µM (inactive),37.7 µM (inactive),27.3 µM (inactive),,
COc1ccc(/C(Br)=C2\OC(=O)c3ccccc32)cc1,> 10 µM (inactive),> 10 µM (inactive),> 10 µM (inactive),> 10 µM (inactive),> 10 µM (inactive),> 10 µM (inactive),> 10 µM (inactive),> 10 µM (inactive),> 10 µM (inactive),> 10 µM (inactive),> 10 µM (inactive),> 10 µM (inactive),,> 10 µM (inactive),> 10 µM (inactive),> 10 µM (inactive),> 10 µM (inactive),> 10 µM (inactive),
CC(=O)c1ccc2c(c1)C(=O)c1sc(C(C)=O)cc1C2=O,1.07 µM (active),1.7 µM (inactive),1.69 µM (inactive),0.233 µM (active),0.488 µM (active),0.22 µM (active),1.17 µM (inactive),1.68 µM (inactive),0.419 µM (active),0.906 µM (active),0.403 µM (active),1.75 µM (inactive),21.6 µM (inactive),1.04 µM (active),1.2 µM (inactive),1.07 µM (active),2.25 µM (inactive),6.98 µM (inactive),
Cc1cccc2oc3c(c(=O)c12)CC(O)C(C)(C)O3 (stereo not drawn),> 100 µM (inactive),> 100 µM (inactive),> 100 µM (inactive),38.5 µM (inactive),45.8 µM (inactive),86.5 µM (inactive),> 100 µM (inactive),> 100 µM (inactive),56.1 µM (inactive),79.1 µM (inactive),28.2 µM (inactive),> 100 µM (inactive),> 100 µM (inactive),> 100 µM (inactive),> 100 µM (inactive),> 100 µM (inactive),> 100 µM (inactive),> 100 µM (inactive),
COc1ccc2c(CCN)c(C(=O)O)[nH]c2c1,> 100 µM (inactive),> 24.5 µM (inactive),> 100 µM (inactive),1 µM (active),> 100 µM (inactive),> 100 µM (inactive),> 100 µM (inactive),> 100 µM (inactive),,> 100 µM (inactive),,> 100 µM (inactive),> 100 µM (inactive),> 100 µM (inactive),> 100 µM (inactive),> 100 µM (inactive),> 100 µM (inactive),> 100 µM (inactive),> 100 µM (inactive)
